Measurements published in US20130137682A1, “PEST CONTROL COMPOSITION” (SUMITOMO CHEMICAL COMPANY, LIMITED, priority 2010, published 2013).

Test system: Haemaphysalis longicornis
Test: Test Example 3: insecticidal test on Haemaphysalis longicornis by treating glass surface
Format: in vivo
Conditions: 48 h, read-out: Mortality Rate (%)
Procedure: Insecticidal Test on Haemaphysalis longicornis by Treating Glass Surface
Acetone solutions were each prepared for the present hydrazide compounds and the present neonicotinoid compounds. To inner walls of a glass screw tube and lid (NO. 5, manufactured by Maruemu Corporation), 0.2 mL of the acetone solution was uniformly applied. […] The lid is closed tightly, and the number of dead ticks is examined after 2 days.

CCN(Cc1ccc(Cl)nc1)/C(=C/[N+](=O)[O-])NC [Nitenpyram, nitenpyram]
mortality at 500 mg/m2: 20%
